According to patent US20260284076A1, “TESTOSTERONE AND DIFLUOROMETHYLORNITHINE COMBINATION THERAPY FOR PROSTATE CANCER” (The Johns Hopkins University, priority 2023, published 2026):
“Also recorded” adds a separate entry of the source. Structures can show the parent of a compound that is named as a salt.

Columns and labels:
[1] = cited from earlier work
LNCaP cells [2] = test: RNAseq of treated LNCaP cells; type: cell-based, human; settings: 96 hours
Description: Overlap of differentially expressed transcripts occurring due to treatment as per (FIG. 27A). […] Change in RNA transcript abundance of genes located with the 8q24 topologically associated domain (TAD) in LNCaP cells treated as per (FIG. 27A).

[3] = test system: AMD1 transcript in LNCaP cells; test: AMD1 transcript stability after actinomycin, RT-PCR; type: cell-based, human
VCaP cells = test: Colony formation (clonal survival); type: cell-based, human; settings: with or without R1881 0.5 nM, 96 hours, colonies at 14 days; monohydrochloride, monohydrate
Description: (§1) FIG. 3A. […] Ns, not significant. FIG. 3B. […] Ns, not significant. FIG. 3C. […] P values by ANOVA;

LNCaP cells [4] = test: Colony formation (clonal survival); type: cell-based, human; settings: with or without R1881 0.5 nM, 96 hours, colonies at 14 days; monohydrochloride, monohydrate
Description: as §1

[5] = test system: MYC in LNCaP and VCaP cells; test: MYC expression by western blot, RT-PCR, RNAseq; type: cell-based, human; settings: R1881 10 nM, DFMO 5 mM, 96 hours; monohydrochloride, monohydrate
Description: (§2) FIG. 5A, FIG. 5B, FIG. 5C, FIG. 5D, and FIG. 5E show: FIG. 5A, MYC expression by IHC in a metastatic tumor biopsy from a patient before and after 3 months of BAT. FIG. 5B, Quantification of MYC protein expression from metastatic tumor biopsies from patients before and after 3 months of BAT color-coded by response (non-responder NR; responder R). […] Vinculin was used as a loading control. FIG. 5D, Principal component analysis of RNA and ATAC sequencing of LNCaP cells treated for 5 days with R1881 10 nM (SPA). […] Vinculin was used as a loading control;

[6] = test system: hypusinated eIF5A in PCa cell lines; test: Total and hypusinated eIF5A by western blot; type: cell-based, human
Description: as §2
FIG. 24A. Schematic highlighting generation of hypusinated eIF5A from spermidine. […] Vinculin is used as a loading control. Representative blots of n=2 independent experiments;

[7] = test system: metastatic CRPC, pre-chemotherapy setting; settings: cited from earlier work
CRPC post docetaxel = settings: post-docetaxel setting; cited from earlier work
[8] = test system: asymptomatic patients with CRPC progressing on Abi; test: TRANSFORMER randomized Phase II study, BAT vs. Enza with crossover; type: in vivo, human
Description: The TRANSFORMER study (NCT02286921) was a DOD-sponsored randomized Phase II study designed to compare the efficacy of BAT vs. Enza in asymptomatic patients with CRPC progressing on Abi, FIG. 19A (2). The study was conducted at 17 academic centers across the US. The study was coordinated by the Prostate Cancer Disease Group clinical research team at Johns Hopkins, who performed regulatory oversight, study/site monitoring, and data analyses. From 2015-2018, 195 patients underwent 1:1 randomization to either standard dose Enza (n=101) or BAT (n=94) at 400 mg IM every 28 days. The primary endpoint was clinical/radiographic PFS. At time of progression, patients were given the option to crossover to the alternate therapy. The trial was designed to show a 50% improvement in the primary endpoint for BAT vs. Enza. […] Objective response was 24.4% for BAT and 4.2% for Enza (p=0.067). Best PSA50 was 26.4% for BAT and 25.5% for Enza (p=0.697).
At time of progression, 46 (49%) of patients on the Enza arm crossed over to receive BAT and 34 (33.7%) crossed over from BAT to receive Enza and were available for analysis. Remarkably, the PSAso response for patients who received Enza after BAT was 72.7% compared to 25.5% for patients receiving Enza immediately after Abi, FIG. 19D. Objective response in the Enza post-BAT patients was 28.6% compared to 4.2% post-Abi, FIG. 19B. […] The logical extension of these findings and the hypothesis of this proposal is that patients are likely to respond again to further repeat cycles of BAT and Enza, but this treatment strategy has yet to be explored in the clinical trial setting.

CRPC = settings: post-abiraterone, pre-chemotherapy setting; cited from earlier work
human T lymphocytes = settings: CD3/CD28-stimulated cells, 24 hours, 5 donors
Description: Protein expression of ODC and AR by western blot of human T cells cultured for 24 hours with vehicle control (EtOH 0.1%), SPA, or enzalutamide (ENZA; 10 μM) in the presence of no stimulation or CD3- and CD28-stimulation with dynabeads. Vinculin is used a loading control. FIG. 22J. Quantification of protein expression of ODC by western blot as per (FIG. 22I), displaying data from independent experiments of 5 different donors with indicated sex. P values by unpaired 2-tailed t test;
To assess whether AR regulates expression of polyamine synthesis enzymes in cells beyond prostate, we isolated human T lymphocytes from peripheral blood of 5 donors, treated unstimulated or CD3/CD28-stimulated cells with vehicle control, SPA, or the AR inhibitor enzalutamide for 24 hours, and measured ODC.

[9] = test system: chronically castrated patients with rising PSA and CRPC; test: Pilot study of BAT with oral etoposide, then second line therapy post-BAT; type: in vivo, human; settings: post-BAT
Description: Based on the preclinical results and potential mechanisms for growth inhibition that include androgen-induced double strand breaks and stabilization of AR preventing relicensing, we have conducted a pilot study evaluating the efficacy and safety of pharmacologic doses of testosterone to produce high dose T levels in conjunction with oral etoposide in chronically castrated patients with rising PSA and CRPC (37). Patients who had been continuously castrate for more than one year with minimal metastatic disease burden (≤5 total bone metastases and ≤10 total sites of metastases) and/or rising PSA were eligible. To achieve rapid cycling between high dose and near castrate serum T (i.e., BAT) patients received intramuscular injection of 400 mg testosterone cypionate every 28 days. For the first 3 cycles of therapy patients received BAT plus oral etoposide 100 mg po/day days 1-14 of a 28-day cycle. After 3 cycles PSA response and objective response were assessed. Those patients with a PSA that was declining from peak levels and no objective evidence of disease progression or worsening pain were continued on therapy. Given the toxicity associated with etoposide and the lack of clinical response in an earlier trial (38), patients who responded after 3 cycles of testosterone plus etoposide were continued on testosterone alone based on protocol amendment.

[10] = test system: patients with CRPC progressing on Enza (Cohort A) or Abi (Cohort B); type: in vivo, human; settings: re-exposed to agent progressed on before BAT
Description: The RESTORE study (NCT02090114) was an NIH sponsored Phase II study designed to assess the safety and efficacy of BAT in patients (n=30 per cohort) with CRPC progressing on Enza (Cohort A) or Abi (Cohort B), FIG. 18A (34,39). The primary endpoint of the first part of the study was to assess PSA response to BAT. Secondary endpoints included objective response, safety, and quality of life. The second part of the study was to determine in BAT could re-sensitize patients to repeat exposure to second line therapy that patients were progressing on prior to receiving BAT. Thus, patients progressing on Enza were re-exposed to Enza after BAT and similarly for Abi. Both arms of this study met the primary endpoint. PSA50 response to BAT was 30% in patient's post-Enza and 18% post-Abi, FIG. 18B. […] Overall duration of response to BAT and duration of response to re-exposure was longer in the post-Enza vs. post-Abi cohort. The PSAso response to re-exposure to Enza was 71% vs. only 21% for patients re-exposed to Abi, FIG. 19B (7). A third cohort was later added (Cohort C) for patients progressing on ADT alone. Overall, 90 patients were treated on this study over a 4-year period (2014-2018).

NCCCC(N)(C(=O)O)C(F)F (stereo not shown) [DFMO, 2-(difluoromethyl)-ornithine, monohydrochloride, monohydrate]
side-effects of high doses ([1]; high doses): reversible ototoxicity and myelosuppression | chemoprevention trials of breast and cervix cancer ([1]; human, in vivo): negative | doses not consistently associated with ototoxicity and myelosuppression ([1]; human, in vivo): less than 1 g/m2/d | prostate polyamine levels and prostate growth ([1]; over one year): can reduce prostate polyamine levels and the rate of growth of the prostate | differentially expressed transcripts vs VEH (LNCaP cells [2]): fewer | half-life of AMD1 transcript ([3]; 96 hours treatment then actinomycin 5 μg/mL): > 8 h | stability of AMD1 transcript ([3]; monohydrochloride, monohydrate): markedly increased stability; also recorded: stabilizes | clonal survival / colony formation (VCaP cells): inhibited clonal survival to a greater extent in R1881-treated cells than vehicle control-treated cells; also recorded: decreased colony formation | clonal survival / colony formation (LNCaP cells [4]): decreased colony formation | MYC expression [5]: reduced; also recorded: enhances downregulation of MYC by SPA | eIF5A hypusination [6]: marked reduction

CNC(=O)c1ccc(N2C(=S)N(c3ccc(C#N)c(C(F)(F)F)c3)C(=O)C2(C)C)cc1F [Enzalutamide, 4-{3-[4-cyano-3-(trifluoromethyl)phenyl]-5,5dimethyl-4-oxo-2-sulfanylideneimidazolidin-1-yl}-2-fluoro-N-methylbenzamide]
hazard ratio, overall survival vs placebo ([7]; 95% CI 0.60 to 0.84): 0.71 | median overall survival ([7]; PREVAIL, enzalutamide group): 32.4 months | >50% decline PSA (%) ([7]; PREVAIL): 78% | PSA PFS ([7]; PREVAIL): 11.2 | TIP (m) ([7]; PREVAIL): 20 m | improvement in survival (CRPC post docetaxel): approximately 5 months | PSA50 response ([8]; Enza after BAT (crossover), listed as Enza): 72.7% | PSA50 response ([8]; Enza after BAT (crossover), listed as enzalutamide): 78% | Time to PSA progression ([8]; Enza immediately post-Abi, without prior BAT): 3.8 months | Objective response ([8]; Enza post-BAT): 28.6% | Time to PSA progression ([8]; Enza post-BAT): 10.9 months | overall survival ([8]; enzalutamide after prior BAT): 37 months | overall survival ([8]; enzalutamide without prior BAT): 29 months | PSA50 response ([8]; initial treatment immediately after Abi, no prior crossover, listed as Enza): 25.5% | PSA50 response ([8]; initial treatment immediately after Abi, no prior crossover, listed as enzalutamide): 25% | fold increase in time to PSA progression on Enza ([8]; post-BAT vs immediately post-Abi): ~3 fold | clinical/radiographic PFS ([8]; randomized arms): 5.72 m | Objective response ([8]; randomized arms, post-Abi): 4.2% | median rPFS (CRPC): ≤ 6 months | ODC protein (human T lymphocytes): decreased ODC in all donors | patients with >50% PSA decline on second line therapy [9]: 3/4 | PSA decline upon re-challenge ([9]; agent previously progressed on): 53.2% | PSA50 response to re-exposure (re-challenge) post-BAT [10]: 71%
